Test results reported in PMC4838890, “Dynamic and flexible H3K9me3 bridging via HP1β dimerization establishes a plastic state of condensed chromatin” (Nature Communications, 2016).
Entries after “also recorded” stand apart in the source; their conditions may differ.

What was measured:
[1] = tested on: H3KC9me3 oligonucleosomes; assay: Chromatin coprecipitation, H3KC9me3 oligonucleosomes; assay type: binding, Xenopus laevis
Method: (§1) 6.7 nM oligonucleosomes were incubated with 1 μM recombinant protein in 100 μl binding buffer (10 mM triethanolamine (pH 7.5), 150 mM NaCl, 5 mM MgCl2, 0.1 mM EDTA, 0.1% (v/v) Triton-X100) for 1 h on ice. Precipitated chromatin complexes were recovered by centrifugation at 16,100g for 30 min at 4°C. Pellets were washed once with 0.5 ml binding buffer and centrifuged for 15 min at 4 °C. Precipitated material was resuspended in 10 μl 1 × SDS loading buffer and boiled for 5 min before running on SDS–PAGE.
(§2) Supplementary Table 1: Summary of conditions used in the different experiments of this study.
(§3) experiment result modification template Temp. [NaCl] [MgCl2]
(§4) chromatin Fig. 1e,f; Fig. S1f-h; H3K9me3 oligo- 4 150 5

[2] = tested on: H3K9me0 and H3K9me3 chromatin; conditions: ref [29]; cited from earlier work
Text: In our model, modulation of the general chromatin-binding mode is brought about by varying sequences in the HR and NT domains as well as possibly their post-translational modification in other HP1 proteins (different variants, different species). We think that within these regions the overall charge but not a particular sequence is mainly dictating the chromatin-binding properties.

[3] = tested on: mouse embryonic stem cells (mESC); assay: ChIP-seq genome-wide correlation with H3K9me3; assay type: cell-based
Method: For crosslink MNase ChIP of HP1β, 10^7 TT2 WT mouse ES cells were collected. Cells were crosslinked with 1% (v/v) formaldehyde in 10 ml of PBS for 10 min at RT, then quenched with 0.125 M glycine for 5 min. Cells were washed 1 × with PBS, and resuspended in 1 ml of EZ Nuclei Isolation Buffer (Sigma-Aldrich, Steinheim, Germany). The cytoplasmic supernatant was discarded and the pellet was flash frozen with liquid N2. […]
A third of ChIP and input DNA (10–20 ng total) underwent end repair with T4 and Klenow, A-tailing and adaptor ligation. […] Resulting PCR was then purified on 2% EX Gel (Life Technologies, Carlsbad, USA) at the 200–700 bp range, and quantified on Qubit and Agilent Tapestation. […]
Following published data sets were downloaded from NCBI/GEO for this study: SPR899601/ H3K9me3 SETDB1^f/− and SPR899602/H3K9me3 SETDB1^−/− both done with anti-H3K9me3 antibody (ab8898)[36]. Reads were processed and aligned to the mouse reference genome (mm9) using QuasR in R. Genomic alignment was performed twice using BOWTIE with the following parameters: --strata, --best and -m 1 or -m 99 to account for reads that map uniquely or up to 99 times in the mouse genome, respectively. For genome-wide comparisons, only uniquely mapping reads were used. Reads mapping up to 99 times were used for ERV analysis and genome browser visualization. […]

H3K9me3 oligonucleosomes [4] = assay: Chromatin coprecipitation, H3K9me3 oligonucleosomes; assay type: binding, Xenopus laevis; conditions: 6.7 nM oligonucleosomes, 1 μM protein, 150 mM NaCl, 5 mM MgCl2, 1 h on ice
Method: as §1, §2, §3, §4

H3K9me3 oligonucleosomes [5] = assay: Chromatin sedimentation (clustering), H3K9me3 oligonucleosomes; assay type: biochemical, Xenopus laevis; conditions: 150 mM NaCl, saturating protein (5 μM) or titration, EtBr fluorescence, n=3
Method: Figure 3 hHP1β clusters oligonuclesomal arrays in dependence of H3K9me3. (a) Oligonucleosomes (2.5 nM) were incubated with increasing concentrations of hHP1β WT or I161A at 150 mM NaCl. DNA remaining in the supernatant after centrifugation was incubated with EtBr and measured by fluorescence reading. Data were normalized to amounts in absence of added protein. Averages of three independent experiments are plotted; error bars represent s.d.; n=3. (b) Analysis of the hydrodynamic radius of oligonucleosomes (10 nM; DNA labelled with ATTO 610) in the presence of increasing concentrations of hHP1β WT or I161A by FCS at 150 mM NaCl. For details on experimental setup see Supplementary Fig. 3. Error bars represent s.d.; n=3. (c) Oligonucleosomes were reconstituted after mixing H3K9me0 and H3K9me3 octamers at different ratio. Chromatin precipitation analysis at 150 mM NaCl was carried out with hHP1β WT at saturating concentration. Data are presented as in a. (d) Precipitation behaviour of oligonucleosomes (2.5 nM) was analysed at different concentrations of NaCl with hHP1β WT at saturating concentration. Data are presented as in a. (e) H3K9me3-containing chromatin was reconstituted using wild-type core histones or tailless H2A, H2B or H4. Oligonucleosomes (2.5 nM) were incubated with increasing concentrations of hHP1β WT at 150 mM NaCl. Data are presented as in a. (f) Chromatin coprecipitation of hHP1β with H3K9me3-containing oligonucleosomes reconstituted with wild-type or tailless core histones at the indicated concentrations of MgCl2. Precipitated material was analysed by western blotting. The region of the western blot membrane of the experiment at 7.5 mM MgCl2 containing histones was stained with Ponceau. (g) Oligonucleosomes at 50 mM NaCl were incubated with hHP1β WT or I161A. Complexes were fixed with 0.05% (v/v) glutaraldehyde, spotted on mica surfaces and analysed by scanning force microscopy. Control, no protein added; scale bar, 100 nm. (h) Quantification of results representatively shown in g according to the classification on the top: A, extended; B, partially condensed; C, fully condensed; D; aggregates; n>50 for each condition.
For saturating conditions, 2.7 nM oligonucleosomes were incubated with 5 μM hHP1β proteins in 100 μl sedimentation buffer (10 mM triethanolamine (pH 7.5), 150 mM NaCl, 0.1 mM EDTA) for 1 h on ice. For non-saturating conditions, 3 μM recombinant proteins were used and the NaCl concentration in the sedimentation buffer was lowered to 100 mM. After incubation, 40 μl per sample was placed into a well of a 96-well plate and kept as ‘input'. The rest was centrifuged at 16,100g for 30 min at 4°C. 40 μl supernatant was carefully removed and placed into a 96-well plate (‘output'). For quantification of chromatin DNA, the input and output samples were incubated with 40 μl 0.5 μg ml^−1 ethidium bromide and fluorescence was measured on a Plate CHAMELEON II fluorescence plate reader (Hidex, Turku, Finland) using a 360 nm (±5 nm) excitation filter and a 612 nm (±5 nm) emission filter. For each sample the ratio of DNA concentrations after and before centrifugation (output/input) was calculated.
Supplementary Table 1: Summary of conditions used in the different experiments of this study. experiment result modification template Temp. [NaCl] [MgCl2] […]
chromatin Fig. 1e,f; Fig. S1f-h; H3K9me3 oligo- 4 150 5 coprecipitation Fig. S2b nucleosomes
Fig. S7d,f; Fig.S9c nucleosomes […]
chromatin sedimentation Fig. 4a; H3K9me3 oligo- 4 150 0
(single point) Fig. S3b nucleosomes […]
chromatin sedimentation. oligo-(titration) Fig. 3a H3K9me3 nucleosomes 4 150 0 […]
crosslinking Fig. S6e,f nucleosomes […]
crosslinking Fig. S7a,b nucleosomes
EMSA Fig. 1g; Fig. 5c; n//a RT 100 5
1Preincubation of oligonucleosomes and h HP1β was performed at 4 °C . Measurements wer e carried out at the in dicated te mperature.
2in increments o f 0 .5 mM
3MgCl2 was added at the end of incubation to coprecipitate oligonucleosomes a nd bound hHP1β.

mouse fibroblasts = assay: Subnuclear distribution of EGFP fusion proteins; assay type: cell-based; conditions: GFP fusions transiently expressed, n >100
Text: Supplementary Figure 11: Subnuclear distribution of hHP1 β wild type and mutant proteins .
(a) The indicated proteins fused to EGFP were transiently expressed in mouse fibroblast cells.
Representative fluorescence confocal images are shown. DNA was stained with DAPI. Scale bar […]
(b) Quantification of the subnuclear distribution of the hHP1β WT and mutant proteins analyzed as in ( a) by visual inspection. EGFP signal in each transfected cell was categoriz ed into ‘dotted’ (see WT distribution in panel a) or ‘diffuse’ (see distribution of I161A in panel a). n >100 for each condition.
(1 picture or pasted object on this page, not shown here)

[6] = tested on: chromatin reporter array in U2OS cells; assay: Chromatin reporter array (LacO) unfolding; assay type: cell-based; conditions: doxycycline 1 μg ml^−1 24 h, LacI-tethered, n>300
Text: Figure 7 hHP1β dimerization is required for maintaining condensed cellular chromatin states. (a) Schematic diagram of the transgene system used to test chromatin compaction effects of hHP1β. A tandem array of the construct has been integrated into the genome of U2OS mammalian cells. Dox, doxycycline; rtTA, reverse tetracycline-controlled TET-VP16 transactivator, whose binding to tetracycline responsive elements (RE) is activated by doxycycline. (b) Together with mCherry-LacI, the indicated fusion proteins were transiently expressed in U2OS cells containing the chromatin reporter array as described in a. Representative confocal images in the absence or after induction of transcription from the array with doxycycline (Dox) are shown. DNA was stained with DAPI. Inlets show enlarged chromatin reporter array; scale bar, 10 μm. (c) Quantification of the results shown in b together with results of similar experiments using additional hHP1β mutant proteins. Averages of three independent experiments are plotted; error bars represent s.d.; n>300 for each condition; asterisks represent P<0.05 according to Student's t-test.
U2OS 2-6-3 CLTon cells[38] were kindly provided by Dr Supriya Prasanth (University of Illinois, IL, USA) and maintained in DMEM (high glucose+GlutaMax) (GIBCO/Invitrogen, Darmstadt, Germany) supplemented with 10% (v/v) TET system approved fetal bovine serum (Clontech, Saint-Germain-en-Laye, France), 50 μg ml^−1 hygromycin (Carl Roth, Karlsruhe, Germany) and 200 μg ml^−1 G418 (Clontech, Saint-Germain-en-Laye, France). For fluorescence microscopy, cells were grown on coverslips in a six-well plate without antibiotics. 500 ng plasmid DNA was transfected using Lipofectamine LTX and Plus reagent (Invitrogen, Darmstadt, Germany). 20 h post transfection, cells were treated with 1 μg ml^−1 doxycycline for 24 h for induction of rtTA expression. Cells were washed twice with PBS and fixed with 3.7% (v/v) formaldehyde/PBS for 10 min at RT. […] P values (according to Student's t-test) were calculated using GraphPad QuickCals (GraphPad, CA, USA).

## Swi6: S. pombe HP1 protein
[1]; 6.7 nM oligonucleosomes, 1 μM protein, 150 mM NaCl, 5 mM MgCl2
  recovery with H3KC9me3 oligonucleosomes: specificity of Swi6 association with H3K9me0 and H3K9me3 oligonucleosomes increased significantly when the chromatin was more saturated; also recorded: recovered to a higher degree in H3K9me3 chromatin coprecipitation compared with hHP1β
[1]; saturating protein concentrations
  molecules bound per nucleosome: approximately four
[2]
  binding to unmodified chromatin: more pronounced binding to unmodified chromatin

## mHP1β: endogenous mouse HP1β; sequence identical to human HP1β
[3]; conditional SETDB1 deletion, H3K9me3 data ref [36]
  H3K9me3 loss on SETDB1 deletion at mHP1β-enriched sites: the strongest loss of H3K9me3 occurred at sites enriched for mHP1β in WT cells
[3]; endogenous mHP1β, antibody-based ChIP-seq, 1 kb windows
  Pearson's R, genome-wide correlation with H3K9me3: 0.77

## hHP1β W42A: CD point mutant of hHP1β, abolishing H3K9me3 binding
H3K9me3 oligonucleosomes [4]
  recovery with H3K9me3 oligonucleosomes: loss of recovery of hHP1β with H3K9me3 oligonucleosomes
H3K9me3 oligonucleosomes [5]
  chromatin clustering/aggregation, H3K9me3: failed to cluster oligonucleosomes
Mouse fibroblasts
  subnuclear distribution: diffuse distribution
[6]
  unfolding of the array on activation: behaved very similar to the WT protein
